Experimental data as given in patent US11613542B2, “Sulfonylureas and sulfonylthioureas as NLRP3 inhibitors” (Inflazome Limited, priority 2017, dated 2023).
Counter-ions that a name gives are not always drawn.

Assays:
[1] = target: T1, NLRP3 (Homo sapiens, UniProt Q96P20); assay: THP-1 cells pyroptosis assay; format: cell-based; parameters: Seed THP-1 cells (25,000 cells/well) containing 1.0 μg/ml LPS; host or cells: THP-1 cells, LPS-primed, nigericin-stimulated; conditions: THP-1 cells, 1.0 μg/ml LPS, compound 3 hrs, nigericin 5 μM 1 hr, resazurin readout; read-out: THP IC50
Text: NLRP and Pyroptosis It is well established that the activation of NLRP3 leads to cell pyroptosis and this feature plays an important part in the manifestation of clinical disease (Yan-gang Liu et al., Cell Death &Disease, 2017, 8(2), e2579; Alexander Wree et al., Hepatology, 2014, 59(3), 898-910; Alex Baldwin et al., Journal of Medicinal Chemistry, 2016, 59(5), 1691-171; Ema Ozaki et al., Journal of Inflammation Research, 2015, 8, 15-27; Zhen Xie & Gang Zhao, Neuroimmunology Neuroinflammation, 2014, 1(2), 60-65; Mattia Cocco et al., Journal of Medicinal Chemistry, 2014, 57(24), 10366-10382; T. Satoh et al., Cell Death &Disease, 2013, 4, e644). Therefore, it is anticipated that inhibitors of NLRP3 will block pyroptosis, as well as the release of pro-inflammatory cytokines (e.g. […]) from the cell. THP-1 Cells: Culture and Preparation THP-1 cells (ATCC #TIB-202) were grown in RPMI containing L-glutamine (Gibco #11835) supplemented with imM sodium pyruvate (Sigma #S8636) and penicillin (100 units/ml)/streptomycin (0.1 mg/ml) (Sigma #P4333) in 10% Fetal Bovine Serum (FBS) (Sigma #Fo804). The cells were routinely passaged and grown to confluency (˜10^6 cells/ml). On the day of the experiment, THP-1 cells were harvested and resuspended into RPMI medium (without FBS). The cells were then counted and viability (>90%) checked by Trypan blue (Sigma #T8154). Appropriate dilutions were made to give a concentration of 625,000 cells/ml. To this diluted cell solution was added LPS (Sigma #L4524) to give a […] Final Assay Concentration (FAC). 40 μl of the final preparation was aliquoted into each well of a 96-well plate. The plate thus prepared was used for compound screening. THP-1 Cells Pyroptosis Assay The following method step-by-step assay was followed for compound screening. • 1. Seed THP-1 cells (25,000 cells/well) containing 1.0 μg/ml LPS in 40 μl of RPMI medium (without FBS) in 96-well, black walled, clear bottom cell culture plates coated with poly-D-lysine (VWR #734-0317) • 2. Add […] compound (8 points half-log dilution, with 10 μM top dose) or vehicle (DMSO 0.1% FAC) to the appropriate wells • 3. […] Add 5 μl nigericin (Sigma #N7143) (FAC 5 μM) to all wells • 5. […] At the end of the incubation period, spin plates at 300 xg for 3 mins and remove supernatant • 7. Then add 50 μl of resazurin (Sigma #R7017) (FAC 100μ M resazurin in RPMI medium without FBS) and incubate plates for a further 1-2 hrs at 37° C. and 5% CO2 • 8. Plates were read in an Envision reader at Ex 560 nm and Em 590 nm • 9. IC50 data is fitted to a non-linear regression equation (log inhibitor vs response-variable slope 4-parameters) [table]

[2] = target: T1, NLRP3; assay: Human whole blood IL1β release assay; format: cell-based; parameters: Human whole blood in Li-heparin tubes was obtained from healthy donors; from tissue; host or cells: human whole blood from healthy donors, LPS-primed, nigericin-stimulated; conditions: human whole blood, 1 μg/ml LPS, compound 3 hrs, nigericin 10 μM 1 hr, IL-1β AlphaLisa; read-out: HWB IC50
Description: Human Whole Blood IL1β Release Assay
For systemic delivery, the ability to inhibit NLRP3 when the compounds are present within the bloodstream is of great importance. For this reason, the NLRP3 inhibitory activity of a number of compounds in human whole blood was investigated in accordance with the following protocol.
Human whole blood in Li-heparin tubes was obtained from healthy donors from a volunteer donor panel. • 1. Plate out 80 μl of whole blood containing 1 μg/ml of LPS in 96-well, clear bottom cell culture plate (Corning #3585) • 2. Add 10 μl compound (8 points half-log dilution with 10 μM top dose) or vehicle (DMSO 0.1% FAC) to the appropriate wells • 3. Incubate for 3 hrs at 37° C., 5% CO2 • 4. Add 10 μl Nigericin (Sigma #N7143) (10 μM FAC) to all wells • 5. Incubate for 1 hr at 37° C., 5% CO2 • 6. At the end of the incubation period, spin plates at 300 xg for 5 mins to pellet cells and remove 20 μl of supernatant and add to 96-well v-bottom plates for IL-1β analysis (note: these plates containing the supernatants can be stored at −80° C. to be analysed at a later date) • 7. IL-1β was measured according to the manufacturer protocol (Perkin Elmer-AlphaLisa IL-1 Kit AL220F-5000) • 8. IC50 data is fitted to a non-linear regression equation (log inhibitor vs response-variable slope 4-parameters)

[3] = Pharmacokinetic parameters in male Sprague Dawley rats (intravenous and oral administration); format: in vivo; conditions: intravenous administration, rat plasma; dose per compound (mg/kg)
Description: Pharmacokinetic parameters were determined in male Sprague Dawley rats (Charles River, UK, 250-350 g; or Vital River Laboratory Animal Technology Co Ltd, Beijing, China, 7-9 weeks old). Animals were individually housed during the study and maintained under a 12 h light/dark cycle. Animals had free access to food and water except that some orally dosed animals were food deprived overnight prior to the study.
For intravenous administration, compounds were formulated as a solution in water or DMSO:PBS [10:90] in 2 mL/kg dosing volume and administered via tail vein. For oral administration, compounds were formulated as a solution in water or DMSO:water [10:90] in 5 mL/kg dosing volume and administered orally.
Serial blood samples (about 120-300 μL) were taken from each animal at each of 8 time-points post dose (0.083, 0.25, 0.5, 1, 2, 4, 8 and 24 h) or at each of 12 time-points post dose (0.03, 0.1, 0.17, 0.25, 0.5, 1, 2, 4, 6, 8,12 and 24 h) or pre-dose and at each of 9 time-points post dose (0.25, 0.5, 1, 2, 4, 6, 8, 12 and 24 h). Samples were held on ice for no longer than 30 minutes before centrifugation (10,000 rpm (8,385 g) for 3 minutes; or 5,696 rpm (3,000 g) for 15 minutes) for plasma generation. Plasma was frozen on dry ice prior to bioanalysis. PK parameters were generated from LC-MS/MS data using Dotmatics or Phoenix WinNonlin 6.3 software.

T1 sequence (Q96P20 whole entry): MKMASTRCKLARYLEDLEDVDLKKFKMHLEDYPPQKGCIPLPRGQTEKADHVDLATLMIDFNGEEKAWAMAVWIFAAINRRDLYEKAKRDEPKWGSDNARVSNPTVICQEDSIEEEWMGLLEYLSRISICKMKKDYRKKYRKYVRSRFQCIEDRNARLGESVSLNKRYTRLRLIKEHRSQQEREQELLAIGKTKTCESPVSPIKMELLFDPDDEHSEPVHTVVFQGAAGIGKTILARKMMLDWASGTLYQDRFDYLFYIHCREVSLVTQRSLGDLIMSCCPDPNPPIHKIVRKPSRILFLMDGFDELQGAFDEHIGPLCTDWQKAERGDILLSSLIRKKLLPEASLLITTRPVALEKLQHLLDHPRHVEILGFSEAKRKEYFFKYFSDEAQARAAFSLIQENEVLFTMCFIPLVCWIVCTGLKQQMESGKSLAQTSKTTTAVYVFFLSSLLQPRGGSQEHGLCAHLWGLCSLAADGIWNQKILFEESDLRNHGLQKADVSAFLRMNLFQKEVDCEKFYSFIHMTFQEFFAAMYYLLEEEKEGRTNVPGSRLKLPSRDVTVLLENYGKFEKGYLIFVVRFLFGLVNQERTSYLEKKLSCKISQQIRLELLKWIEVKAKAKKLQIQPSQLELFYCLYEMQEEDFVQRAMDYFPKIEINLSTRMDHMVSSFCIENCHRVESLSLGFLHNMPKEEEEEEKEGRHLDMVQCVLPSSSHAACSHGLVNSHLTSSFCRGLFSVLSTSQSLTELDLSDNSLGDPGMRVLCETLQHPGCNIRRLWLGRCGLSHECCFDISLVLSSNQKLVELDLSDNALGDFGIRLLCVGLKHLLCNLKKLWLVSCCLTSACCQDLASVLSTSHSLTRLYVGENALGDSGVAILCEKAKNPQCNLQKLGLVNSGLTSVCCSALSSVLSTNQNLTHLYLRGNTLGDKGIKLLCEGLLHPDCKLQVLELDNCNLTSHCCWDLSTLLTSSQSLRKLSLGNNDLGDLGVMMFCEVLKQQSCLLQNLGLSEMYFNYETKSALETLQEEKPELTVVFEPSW

Compound | IC50 [1] [nM] | IC50 [2] [nM] | also measured
CN(C)C(=O)Cn1ccc(S(=O)(=O)NC(=O)Nc2c3c(cc4c2CCC4)CCC3)n1 [Example 1, 2-(3-(N-((1,2,3,5,6,7-Hexahydro-s-indacen-4-yl)carbamoyl)sulfamoyl)-1H-pyrazol-1-yl)-N,N-dimethylacetamide, sodium salt] | < 640 | < 10000 | 
CNC(=O)Cn1ccc(S(=O)(=O)NC(=O)Nc2c3c(cc4c2CCC4)CCC3)n1 [Example 2, 2-(3-(N-((1,2,3,5,6,7-Hexahydro-s-indacen-4-yl)carbamoyl)sulfamoyl)-1H-pyrazol-1-yl)-N-methylacetamide] | < 640 | < 3200 | 
O=C(Nc1c2c(cc3c1CCC3)CCC2)NS(=O)(=O)c1ccn(CCN2CCCC2)n1 [Example 3, N-((1,2,3,5,6,7-Hexahydro-s-indacen-4-yl)carbamoyl)-1-(2-(pyrrolidin-1-yl)ethyl)-1H-pyrazole-3-sulfonamide, sodium salt] | < 640 | < 1600 | 
CN(C)C1(Cn2ccc(S(=O)(=O)NC(=O)Nc3c4c(cc5c3CCC5)CCC4)n2)CC1 [Example 11, 1-((1-(Dimethylamino)cyclopropyl)methyl)-N-((1,2,3,5,6,7-hexahydro-s-indacen-4-yl)carbamoyl)-1H-pyrazole-3-sulfonamide] | < 640 | < 1600 | 
CN1CC(n2ccc(S(=O)(=O)NC(=O)Nc3c4c(cc5c3CCC5)CCC4)n2)C1 [Example 12, N-((1,2,3,5,6,7-Hexahydro-s-indacen-4-yl)carbamoyl)-1-(1-methylazetidin-3-yl)-1H-pyrazole-3-sulfonamide] | < 2560 | < 1600 | 
CNCCn1ccc(S(=O)(=O)NC(=O)Nc2c3c(cc4c2CCC4)CCC3)n1 [Example 13, N-((1,2,3,5,6,7-Hexahydro-s-indacen-4-yl)carbamoyl)-1-(2-(methylamino)ethyl)-1H-pyrazole-3-sulfonamide] | < 640 | < 800 | 
O=C(Nc1c2c(cc3c1CCC3)CCC2)NS(=O)(=O)c1ccn(C2CNC2)n1 [Example 14, 1-(Azetidin-3-yl)-N-((1,2,3,5,6,7-hexahydro-s-indacen-4-yl)carbamoyl)-1H-pyrazole-3-sulfonamide] | < 640 | < 3200 | 
C[C@@H](Cn1ccc(S(=O)(=O)NC(=O)Nc2c3c(cc4c2CCC4)CCC3)n1)N(C)C [Example 18, (S)-1-(2-(Dimethylamino)propyl)-N-((1,2,3,5,6,7-hexahydro-s-indacen-4-yl)carbamoyl)-1H-pyrazole-3-sulfonamide] | < 160 | < 800 | 
CN1CC(Cn2ccc(S(=O)(=O)NC(=O)Nc3c4c(cc5c3CCC5)CCC4)n2)C1 [Example 19, N-((1,2,3,5,6,7-Hexahydro-s-indacen-4-yl)carbamoyl)-1-((1-methylazetidin-3-yl)methyl)-1H-pyrazole-3-sulfonamide] | < 640 | < 3200 | 
CN1CCC[C@@H]1Cn1ccc(S(=O)(=O)NC(=O)Nc2c3c(cc4c2CCC4)CCC3)n1 [Example 21, (R)—N-((1,2,3,5,6,7-Hexahydro-s-indacen-4-yl)carbamoyl)-1-((1-methylpyrrolidin-2-yl)methyl)-1H-pyrazole-3-sulfonamide] | < 640 | < 800 | 
CN(C)CCn1cnc(S(=O)(=O)NC(=O)Nc2c3c(cc4c2CCC4)CCC3)c1 [Example 23, 1-(2-(Dimethylamino)ethyl)-N-((1,2,3,5,6,7-hexahydro-s-indacen-4-yl)carbamoyl)-1H-imidazole-4-sulfonamide] | < 2560 | < 3200 | 
CN(C)CCn1cc(S(=O)(=O)NC(=O)Nc2c3c(cc4c2CCC4)CCC3)nn1 [Example 25, 1-(2-(Dimethylamino)ethyl)-N-((1,2,3,5,6,7-hexahydro-s-indacen-4-yl)carbamoyl)-1H-1,2,3-triazole-4-sulfonamide, sodium salt] | < 640 | < 3200 | 
CN(CCO)Cc1cc(S(=O)(=O)NC(=O)Nc2c3c(cc4c2CCC4)CCC3)nn1C [Example 124, N-((1,2,3,5,6,7-Hexahydro-s-indacen-4-yl)carbamoyl)-5-(((2-hydroxyethyl)(methyl)amino)methyl)-1-methyl-1H-pyrazole-3-sulfonamide] | < 160 |  | AUC [3]: 2067.0 ng·h/mL; Cl [3]: 8.1 mL/min/kg; T1/2 [3]: 14.2 h; Vdss [3]: 1.9 L/kg
CC(C)c1cc(Cl)cc(C(C)C)c1NC(=O)NS(=O)(=O)c1ccn(C(C)(C)CN(C)C)n1 [Example 200, N-((4-Chloro-2,6-diisopropylphenyl)carbamoyl)-1-(1-(dimethylamino)-2-methylpropan-2-yl)-1H-pyrazole-3-sulfonamide] | < 2560 |  | 
CC(C)c1cc(F)cc(C(C)C)c1NC(=O)NS(=O)(=O)c1ccn(C(C)(C)CN(C)C)n1 [Example 201, 1-(1-(Dimethylamino)-2-methylpropan-2-yl)-N-((4-fluoro-2,6-diisopropylphenyl)carbamoyl)-1H-pyrazole-3-sulfonamide] | < 2560 |  | 
C[C@@H](CN(C)C)n1ccc(S(=O)(=O)NC(=O)Nc2c3c(cc4c2CCC4)CCC3)n1 [Example 203, (S)-1-(1-(Dimethylamino)propan-2-yl)-N-((1,2,3,5,6,7-hexahydro-s-indacen-4-yl)carbamoyl)-1H-pyrazole-3-sulfonamide] | < 640 |  | 
